Source: patent publication US7037656B2, “Methods and compositions for identifying ligands for nuclear receptors” (priority 2000, dated 2006)

What was measured:
Experiment in all cases: Yeast 6x EcRE-lacZ β-galactosidase transactivation assay
Aa ΔA/B EcR + Aa USPb = biological target: T1, Aa ΔA/B EcR + Aa USPb (Aedes aegypti, UniProt P49880); type: cell-based; details: RH 5992 10 μM, 4 hours, DMSO control 0.177
T1 construct: ubiquitin (human, 76 aa) (N, cleaved yes); expressed in transfected cells
T1 sequence (P49880 with tags, fused parts or gaps): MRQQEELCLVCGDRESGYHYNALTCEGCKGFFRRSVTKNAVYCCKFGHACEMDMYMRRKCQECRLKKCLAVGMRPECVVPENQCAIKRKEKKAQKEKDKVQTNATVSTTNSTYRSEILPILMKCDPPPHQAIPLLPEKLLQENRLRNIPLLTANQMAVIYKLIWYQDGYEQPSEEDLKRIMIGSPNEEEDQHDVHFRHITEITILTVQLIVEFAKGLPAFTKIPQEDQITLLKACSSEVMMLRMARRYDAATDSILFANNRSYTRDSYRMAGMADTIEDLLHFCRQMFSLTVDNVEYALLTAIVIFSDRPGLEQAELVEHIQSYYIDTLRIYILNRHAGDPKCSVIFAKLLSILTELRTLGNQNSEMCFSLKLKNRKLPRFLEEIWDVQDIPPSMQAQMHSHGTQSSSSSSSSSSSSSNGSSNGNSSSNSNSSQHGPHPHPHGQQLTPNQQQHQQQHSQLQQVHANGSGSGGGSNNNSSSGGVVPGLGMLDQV
Description: (§1) Briefly, yeast cells are cultured in 5 mL of YPD liquid medium overnight at 30° C. The cell culture was diluted 1:20 in YPD media and further grown until cell density reached an O.D of 0.6. at OD600. The cells were pelleted by centrifugation and washed with 10 mL of TE+0.1M lithium acetate. Cells are then resuspended in 10 mL TE+0.1M lithium acetate and incubated at 30° C. for 1 hour. Cells are collected and resuspended in 0.5 mL of TE+ 0.1M lithium acetate. Aliquots of cells (50 μL), were incubated for 15 minutes at 30° C. with 1–2 μg plasmid DNA in the presence of 5 μg of denatured salmon sperm DNA as DNA carrier. In the case of co-transformation, the indicated plasmids were added simultaneously. 50% polyethyleneglycol of molecular weight 4000, diluted in TE, was added to a final concentration of 35%. DMSO was added to the transformation solution simultaneously to a final concentration 3%. The samples were mixed well by vortexing and incubated for an additional 30 minutes at 30° C. The cell mixture is then heated for 15 minutes at 42° C. Cells were then collected and plated onto appropriate yeast selective media. Transformants of 4 plasmids are selected on the complete media without tryptophan, uracil, leucine and histidine.
(§2) The yeast cells grown overnight in selective liquid media at 30° C. were diluted in prewarmed liquid selective media to 0.1 at OD600 (ODculture). 100 μl of the cell culture was spiked to each well of a.96-well microtiter plate. […] After 4 hours of incubation, 100 μl of 2× “Z” Sarcosine-ONPG buffer (120 mM Na2HPO4, 80 mM NaH2PO4, 20 mM KCl, 2 mM MgSO4, 100 mM beta-mercaptoethanol (Sigma), pH 7.0, 0.4% lauroyl sarcosine (Sigma), 4 mg/mL ONPG (Diagnostic Chemicals limited) was added to each well and the plate was further incubated at 37° C. The 2× “Z” Sarcosine-ONPG buffer is freshly prepared or stored at −20° C. prior to use. After incubation at 37° C. for 1 hour. The reaction was stopped by adding 100 μL of quenching solution 0.5 M Na2CO3 and OD405 (ODreaction) and beta-galactosidase activity was measured in a micro plate reader (Biotek) at a wave length of 405–450 nanometers. […]
(§3) Using the transformation method described above, yeast were co-transformed with a reporter gene as shown in FIG. 2 and the expression vector encoding the full-length Aedes aegypti ecdysone receptor, Aa EcR (FIG. 7A) in the presence or absence of the Aa EcR heterodimer partner, Aa USP (a or b form, FIGS. 8A and 8B respectively). […] As the N-terminal portion of the AaEcR receptor is reported to play a role in ligand independent transactivation, an expression vector containing an N-terminal deletion in the Aa EcR was constructed (see FIG. 7B) and assessed in the β-galactosidase assays described above. […]

[1] = biological target: T2, Aa ΔA/B EcR + AaUSPb + GRIP1 (Aedes aegypti, UniProt P49880); type: cell-based; details: RH 5992 10 μM, 4 hours, DMSO control 0.240
T2 construct: ubiquitin (human, 76 aa) (N, cleaved yes); expressed in transfected cells
T2 sequence (P49880 with tags, fused parts or gaps): as above
Description: as §1, §2, §3

Aa EcR = biological target: T3, Aa EcR (Aedes aegypti, UniProt P49880, DEL155-194); type: cell-based; details: RH 5992 10 μM, 4 hours, DMSO control 2.500
T3 construct: ubiquitin (human, 76 aa) (N, cleaved yes); expressed in transfected cells
T3 sequence (P49880 other isoform, or with tags, fused parts or gaps DEL155-194): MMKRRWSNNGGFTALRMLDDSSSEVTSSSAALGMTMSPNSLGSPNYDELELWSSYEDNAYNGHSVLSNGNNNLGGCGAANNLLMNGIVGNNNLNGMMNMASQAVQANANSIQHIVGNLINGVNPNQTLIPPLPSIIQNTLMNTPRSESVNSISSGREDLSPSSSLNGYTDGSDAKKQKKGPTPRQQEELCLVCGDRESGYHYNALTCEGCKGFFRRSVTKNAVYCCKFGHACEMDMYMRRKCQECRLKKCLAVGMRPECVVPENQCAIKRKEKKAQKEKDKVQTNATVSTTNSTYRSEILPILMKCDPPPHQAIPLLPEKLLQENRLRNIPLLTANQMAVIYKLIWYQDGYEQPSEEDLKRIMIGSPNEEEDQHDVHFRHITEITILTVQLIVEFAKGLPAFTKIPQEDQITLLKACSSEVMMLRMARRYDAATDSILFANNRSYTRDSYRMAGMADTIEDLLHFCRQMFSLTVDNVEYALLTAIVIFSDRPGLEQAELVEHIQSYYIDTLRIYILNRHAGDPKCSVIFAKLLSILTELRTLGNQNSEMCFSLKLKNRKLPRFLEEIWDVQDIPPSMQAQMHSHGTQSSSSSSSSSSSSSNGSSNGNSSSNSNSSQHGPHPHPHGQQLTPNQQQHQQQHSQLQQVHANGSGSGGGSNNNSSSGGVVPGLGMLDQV
Description: as §1, §2, §3

[2] = biological target: T4, Aa ΔA/B EcR + Aa USPa + GRIP1 (Aedes aegypti, UniProt P49880); type: cell-based; details: RH 5992 10 μM, 4 hours, DMSO control 0.272
T4 construct: ubiquitin (human, 76 aa) (N, cleaved yes); expressed in transfected cells
T4 sequence (P49880 with tags, fused parts or gaps): as the sequence (P49880 with tags, fused parts or gaps) above
Description: as §1, §2, §3

[3] = biological target: T5, Aa ΔA/B EcR + RXRγ + GRIP1 (Aedes aegypti, UniProt P49880); type: cell-based, Aedes aegypti; mouse; details: RH 5992 10 μM, 4 hours, DMSO control 0.496
T5 construct: ubiquitin (human, 76 aa) (N, cleaved yes); expressed in transfected cells
T5 sequence (P49880 with tags, fused parts or gaps): as above
T5 sequence (P28705 whole entry partner): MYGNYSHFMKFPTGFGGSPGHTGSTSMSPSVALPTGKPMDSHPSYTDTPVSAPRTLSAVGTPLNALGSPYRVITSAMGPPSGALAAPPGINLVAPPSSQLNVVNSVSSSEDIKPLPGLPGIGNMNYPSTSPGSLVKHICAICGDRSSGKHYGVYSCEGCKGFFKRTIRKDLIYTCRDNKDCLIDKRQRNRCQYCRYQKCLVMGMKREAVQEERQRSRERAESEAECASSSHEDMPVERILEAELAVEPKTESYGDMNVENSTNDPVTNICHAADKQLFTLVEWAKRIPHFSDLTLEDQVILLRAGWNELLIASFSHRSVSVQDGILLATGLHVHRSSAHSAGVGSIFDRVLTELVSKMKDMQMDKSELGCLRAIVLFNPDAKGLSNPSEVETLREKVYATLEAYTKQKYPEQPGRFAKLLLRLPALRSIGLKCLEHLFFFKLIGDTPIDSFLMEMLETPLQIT
Description: The human RXR α (Genbank accession number X52773), mouse RXR β (Genbank accession number X66224) or mouse RXR γ (Genebank accession number X66225) subtypes were expressed in yeast-E. coli multicopy 2μ expression plasmids under regulation of CUP1 promoter with the LEU2 selective marker (1).
Briefly, yeast cells are cultured in 5 mL of YPD liquid medium overnight at 30° C. The cell culture was diluted 1:20 in YPD media and further grown until cell density reached an O.D of 0.6. at OD600. The cells were pelleted by centrifugation and washed with 10 mL of TE+0.1M lithium acetate. Cells are then resuspended in 10 mL TE+0.1M lithium acetate and incubated at 30° C. for 1 hour. Cells are collected and resuspended in 0.5 mL of TE+ 0.1M lithium acetate. […]
as §3

Compound `CCc1ccc(C(=O)NN(C(=O)c2cc(C)cc(C)c2)C(C)(C)C)cc1` [RH 5992, tebufenozide] has a β-galactosidase activity (Aa ΔA/B EcR + Aa USPb) of 0.184, a β-galactosidase activity [1] of 2.074 and a β-galactosidase activity (Aa EcR) of 2.750. It also gave a β-galactosidase activity [2] of 2.026 and a β-galactosidase activity [3] of 2.666.
